Values quoted from earlier work as cited in patent US20220184020A1, “Polyphenols as Modulators of Platelet Function” (Northeastern University, priority 2019, published 2022).

Assays:
[1] = cited from earlier work; for Max: maximum concentration detected in blood; for Max / Min: HMDB; for Min: minimum concentration detected in blood; for Concentration in Blood: retrieved from HMDB, Table 2
[2] = in vitro and in vivo models; cited from earlier work
[3] = in vivo models, recent studies; cited from earlier work
[4] = system: MCF7 cell line; details: MCF7, 1 μM, 6 hours; cited from earlier work

SMILES | Max [1] [µM] | Min [1] [µM] | also measured
O=C(O)c1cccc(O)c1O [2,3-dihydroxybenzoic acid] | 0.129 | 0.129 | 
O=C(O)c1ccccc1O [2-hydroxybenzoic acid] | 0.02 | 0.02 | 
Oc1cc(O)c2c(c1)O[C@H](c1ccc(O)c(O)c1)[C@H](O)C2 [(-)-epicatechin] | 0.625 | 0.625 | Concentration in Blood [1]: 0.625 µM
O=C(O[C@@H]1Cc2c(O)cc(O)cc2O[C@@H]1c1cc(O)c(O)c(O)c1)c1cc(O)c(O)c(O)c1 [(-)-epigallocatechin 3-O-gallate] |  |  | glucose-lowering effects [2]: glucose-lowering effects
O=c1cc(-c2ccc(O)cc2)oc2cc(O)cc(O)c12 [apigenin] | 0.127 | 0.0106 | 
O=c1oc2cc(O)ccc2c2oc3cc(O)ccc3c12 [coumestrol] | 0.0123 | 0.0123 | 
O=c1oc2c(O)c(O)cc3c(=O)oc4c(O)c(O)cc1c4c23 [ellagic acid] | 0.067 | 0.067 | 
O=C(O)c1cc(O)c(O)c(O)c1 [gallic acid] |  |  | effects on vascular health [3]: protective effects on vascular health
O=c1c(-c2ccc(O)cc2)coc2cc(O)cc(O)c12 [genistein] | 0.525 | 0.00022 | number of Skin Diseases (SD) genes with perturbation score>2 [4]: 10; number of highly perturbed Cerebrovascular Disorders (CD) genes [4]: one; Concentration in Blood [1]: [0.006-0.525 μM]
COc1ccccc1O [guaiacol] | 8.5 | 8.5 | 
COc1cc(-c2oc3cc(O)cc(O)c3c(=O)c2O)ccc1O [isorhamnetin] | 0.157 | 0.0388 | 
O=c1c(O)c(-c2cc(O)c(O)c(O)c2)oc2cc(O)cc(O)c12 [myricetin] | 45 | 45 | 
O=C1C[C@@H](c2ccc(O)cc2)Oc2cc(O)cc(O)c21 [naringenin] | 0.02 | 0.00815 | 
Oc1ccccc1 [phenol] | 6.38 | 0.86 | 
O=C(O)Cc1ccccc1 [phenylacetic acid] | 80.36 | 10.28 | 
O=c1c(O)c(-c2ccc(O)c(O)c2)oc2cc(O)cc(O)c12 [quercetin] |  |  | Concentration in Blood [1]: [0.022-0.080 μM]
